A short description of assay [1]: Luminescence Cell-Based Secondary HTS screen to identify cytotoxic compounds of NIH3T3 cells. [Related pubchem assays: 1885, 1968 ]. Type of assay: functional.
In assay [2] the test system is HEK293. As to the kind of experiment: cells. The class given is functional, cell-based. The settings on record: Homo sapiens.
A further assay concerns Vero. As to the kind of experiment: Vero cell cytotoxicity, cytotoxicity control for flavivirus capping enzyme inhibitors (AID 588742). The class given is functional. As to conditions: Chlorocebus sabaeus.
Assay [3] concerns the target T1, Sentrin-specific protease 6 (Homo sapiens, UniProt Q9GZR1).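 Also: Luminescence-based dose-response confirmatory assay of SENP6 inhibition, following up an ultra-high-throughput screen.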
T1 sequence (Q9GZR1 whole entry): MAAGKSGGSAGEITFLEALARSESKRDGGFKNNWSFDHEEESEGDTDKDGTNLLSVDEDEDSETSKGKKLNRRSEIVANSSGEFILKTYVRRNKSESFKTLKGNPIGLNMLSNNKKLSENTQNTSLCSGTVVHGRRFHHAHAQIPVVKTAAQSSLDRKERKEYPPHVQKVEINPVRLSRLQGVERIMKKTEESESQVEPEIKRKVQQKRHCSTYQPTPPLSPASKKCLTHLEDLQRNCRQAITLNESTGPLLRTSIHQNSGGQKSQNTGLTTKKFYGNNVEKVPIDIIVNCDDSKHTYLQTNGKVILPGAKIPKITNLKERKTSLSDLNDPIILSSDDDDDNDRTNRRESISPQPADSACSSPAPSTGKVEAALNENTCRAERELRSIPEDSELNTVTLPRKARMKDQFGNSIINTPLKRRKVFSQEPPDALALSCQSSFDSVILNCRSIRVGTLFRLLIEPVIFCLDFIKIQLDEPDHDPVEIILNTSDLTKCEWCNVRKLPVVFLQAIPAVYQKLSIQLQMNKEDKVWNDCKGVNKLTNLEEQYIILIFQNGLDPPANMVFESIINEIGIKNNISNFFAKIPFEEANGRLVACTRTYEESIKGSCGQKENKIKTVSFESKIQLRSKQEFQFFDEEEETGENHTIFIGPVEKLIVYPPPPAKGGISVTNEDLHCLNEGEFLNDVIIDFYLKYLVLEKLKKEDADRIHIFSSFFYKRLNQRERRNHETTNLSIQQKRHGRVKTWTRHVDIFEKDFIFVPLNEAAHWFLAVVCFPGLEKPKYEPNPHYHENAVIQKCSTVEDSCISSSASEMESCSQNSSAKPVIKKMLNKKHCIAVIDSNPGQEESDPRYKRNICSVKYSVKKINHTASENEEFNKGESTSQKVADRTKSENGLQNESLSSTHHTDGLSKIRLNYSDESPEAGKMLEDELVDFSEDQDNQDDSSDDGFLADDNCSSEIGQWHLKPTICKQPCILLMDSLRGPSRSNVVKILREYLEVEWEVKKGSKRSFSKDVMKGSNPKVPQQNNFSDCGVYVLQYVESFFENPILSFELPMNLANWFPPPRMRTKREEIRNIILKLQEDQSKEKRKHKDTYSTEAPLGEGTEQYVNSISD
The class given is functional.

Assay [4] deals with T2, Sentrin-specific protease 8 (Homo sapiens, UniProt Q96LD8).
T2 sequence (Q96LD8 whole entry): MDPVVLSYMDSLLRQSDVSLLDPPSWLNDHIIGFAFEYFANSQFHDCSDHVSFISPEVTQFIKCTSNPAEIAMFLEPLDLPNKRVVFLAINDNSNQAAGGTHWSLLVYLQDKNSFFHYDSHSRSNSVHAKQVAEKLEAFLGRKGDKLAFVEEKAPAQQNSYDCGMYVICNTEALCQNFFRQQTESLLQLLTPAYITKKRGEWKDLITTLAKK
The class given is functional.

The subject of assay [5] is HEK293. As to the kind of experiment: inhibitors of LMP1-driven NF-kB reporter, dose response, cell-based, HEK293, luciferase, cherry-pick (AID 588343). The settings on record: Homo sapiens. The class given is functional.
In assay [6] the target is T3, Heat shock factor protein 1 (Mus musculus, UniProt P38532).
T3 sequence (P38532 whole entry): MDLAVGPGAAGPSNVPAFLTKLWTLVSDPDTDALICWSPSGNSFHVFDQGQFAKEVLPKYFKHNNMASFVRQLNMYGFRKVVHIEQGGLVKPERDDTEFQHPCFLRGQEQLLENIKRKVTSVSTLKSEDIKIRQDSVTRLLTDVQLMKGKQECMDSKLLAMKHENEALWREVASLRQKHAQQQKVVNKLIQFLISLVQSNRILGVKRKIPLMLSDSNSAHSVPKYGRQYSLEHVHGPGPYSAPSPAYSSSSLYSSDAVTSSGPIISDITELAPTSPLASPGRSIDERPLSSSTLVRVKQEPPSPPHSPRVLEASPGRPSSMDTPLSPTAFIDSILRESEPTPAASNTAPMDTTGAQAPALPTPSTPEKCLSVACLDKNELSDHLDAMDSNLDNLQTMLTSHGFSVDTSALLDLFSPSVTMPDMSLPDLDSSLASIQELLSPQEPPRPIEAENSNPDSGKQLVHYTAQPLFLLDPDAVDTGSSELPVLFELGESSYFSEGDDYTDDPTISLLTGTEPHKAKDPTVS
As to the kind of experiment: inhibition of MG132-induced HSE-luciferase signal, confirmation, cell-based, NIH3T3, luminescence, dose retest (AID 2382).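 Also: NIH3T3 fibroblasts with HSF1-driven luciferase reporter stressed by proteasome inhibitor MG132; luminescence from HSF1-driven luciferase expression after 8 hours of MG132 stress.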 The class given is functional.

The next assay deals with Fatty acid synthase (Homo sapiens, UniProt P49327). As to the kind of experiment: FAS thioesterase domain inhibitors, dose response, biochemical, kinetic fluorescence intensity (AID 624326).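 Also: rate of fluorescence rise from hydrolysis of a fluorogenic O-methyl fluorescein ester substrate.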 The class given is functional.

Activity calls are given as the source filed them.

Chain of Fatty acid synthase (P49327 whole entry, the tested form may be a part): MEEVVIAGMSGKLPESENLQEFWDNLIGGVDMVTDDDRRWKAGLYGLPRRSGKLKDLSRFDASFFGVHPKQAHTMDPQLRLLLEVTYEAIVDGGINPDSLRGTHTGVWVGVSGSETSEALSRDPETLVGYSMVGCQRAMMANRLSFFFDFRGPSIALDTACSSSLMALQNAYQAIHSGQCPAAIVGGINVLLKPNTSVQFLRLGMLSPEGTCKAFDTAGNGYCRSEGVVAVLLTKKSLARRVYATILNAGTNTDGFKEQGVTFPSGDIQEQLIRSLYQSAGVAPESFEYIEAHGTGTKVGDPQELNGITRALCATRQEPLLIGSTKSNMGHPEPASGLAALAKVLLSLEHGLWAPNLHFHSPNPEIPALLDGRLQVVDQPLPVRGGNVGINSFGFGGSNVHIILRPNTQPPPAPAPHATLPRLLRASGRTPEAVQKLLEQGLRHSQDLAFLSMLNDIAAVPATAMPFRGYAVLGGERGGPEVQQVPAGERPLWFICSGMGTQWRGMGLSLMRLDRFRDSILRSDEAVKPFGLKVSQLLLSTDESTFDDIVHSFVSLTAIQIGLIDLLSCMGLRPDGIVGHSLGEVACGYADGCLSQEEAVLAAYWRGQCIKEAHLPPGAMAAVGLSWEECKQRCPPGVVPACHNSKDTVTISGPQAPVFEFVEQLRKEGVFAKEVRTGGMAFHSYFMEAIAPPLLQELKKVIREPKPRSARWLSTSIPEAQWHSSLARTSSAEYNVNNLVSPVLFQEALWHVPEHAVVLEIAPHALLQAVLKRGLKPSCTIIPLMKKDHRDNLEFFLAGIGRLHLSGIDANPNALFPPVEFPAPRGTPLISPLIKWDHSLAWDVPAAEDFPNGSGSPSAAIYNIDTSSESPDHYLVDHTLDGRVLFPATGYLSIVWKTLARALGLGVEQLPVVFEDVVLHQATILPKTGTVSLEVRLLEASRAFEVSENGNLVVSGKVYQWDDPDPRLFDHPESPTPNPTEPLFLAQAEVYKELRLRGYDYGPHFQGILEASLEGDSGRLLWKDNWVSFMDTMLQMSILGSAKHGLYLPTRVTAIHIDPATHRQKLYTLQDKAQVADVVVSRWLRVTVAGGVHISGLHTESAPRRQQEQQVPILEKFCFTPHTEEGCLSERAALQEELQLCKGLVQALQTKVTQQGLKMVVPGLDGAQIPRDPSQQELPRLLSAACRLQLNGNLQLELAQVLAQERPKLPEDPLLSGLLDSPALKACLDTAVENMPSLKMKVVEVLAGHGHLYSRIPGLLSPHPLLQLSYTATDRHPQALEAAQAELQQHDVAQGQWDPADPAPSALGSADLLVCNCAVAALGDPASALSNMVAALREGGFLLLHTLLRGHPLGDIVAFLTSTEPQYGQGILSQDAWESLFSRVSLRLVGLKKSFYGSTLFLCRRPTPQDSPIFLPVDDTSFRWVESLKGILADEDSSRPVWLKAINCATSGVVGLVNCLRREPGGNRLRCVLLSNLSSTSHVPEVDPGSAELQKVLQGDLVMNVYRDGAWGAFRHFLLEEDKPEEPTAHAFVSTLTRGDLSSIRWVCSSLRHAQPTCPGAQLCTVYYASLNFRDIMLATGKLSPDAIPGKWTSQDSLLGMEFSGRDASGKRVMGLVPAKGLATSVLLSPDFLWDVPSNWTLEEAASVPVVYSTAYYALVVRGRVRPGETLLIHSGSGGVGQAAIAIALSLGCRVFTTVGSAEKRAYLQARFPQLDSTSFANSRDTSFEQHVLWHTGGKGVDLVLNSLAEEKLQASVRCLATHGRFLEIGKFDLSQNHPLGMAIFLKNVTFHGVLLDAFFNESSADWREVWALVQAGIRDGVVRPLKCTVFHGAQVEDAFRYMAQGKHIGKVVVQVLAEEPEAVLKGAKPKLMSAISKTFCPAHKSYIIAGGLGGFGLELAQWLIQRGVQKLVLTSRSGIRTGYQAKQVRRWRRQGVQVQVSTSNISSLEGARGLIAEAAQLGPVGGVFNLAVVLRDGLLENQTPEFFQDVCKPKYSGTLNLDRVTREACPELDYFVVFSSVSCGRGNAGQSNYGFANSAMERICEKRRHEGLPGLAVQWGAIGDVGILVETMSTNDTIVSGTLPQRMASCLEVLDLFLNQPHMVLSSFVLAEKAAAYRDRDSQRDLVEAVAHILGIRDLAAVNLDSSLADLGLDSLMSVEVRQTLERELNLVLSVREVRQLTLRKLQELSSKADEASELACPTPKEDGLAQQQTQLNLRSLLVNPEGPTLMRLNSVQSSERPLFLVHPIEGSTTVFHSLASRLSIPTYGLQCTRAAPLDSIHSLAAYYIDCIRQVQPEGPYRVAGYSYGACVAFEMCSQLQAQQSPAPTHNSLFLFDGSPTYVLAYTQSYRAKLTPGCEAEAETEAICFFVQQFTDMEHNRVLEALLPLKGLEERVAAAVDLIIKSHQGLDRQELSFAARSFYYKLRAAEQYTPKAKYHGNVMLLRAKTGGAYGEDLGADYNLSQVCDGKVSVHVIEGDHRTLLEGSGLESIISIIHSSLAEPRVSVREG

`O=C(CNc1cccc2ccccc12)N/N=C/c1ccc([N+](=O)[O-])o1`: the values for the EC50 (in “cells”; in assay [1]) were 0.064 µM (active) and 17.5 µM (active), respectively. Further, the IC50 with HEK293 [2] was 15.8 µM (active).
With `O=C(O)CSc1cc(NS(=O)(=O)c2ccc(Br)cc2)c2ccccc2c1O`, the CC50 in the assay with Vero was 34 µM (active).
In the case of `O=C1NC(=S)N/C1=C/c1cc2c(cc1[N+](=O)[O-])OCO2`, the IC50 in [3] is 14.1 µM (active); in assay [4], 9.01 µM (active).
For the compound `O=C(CC(O)(C(F)(F)F)C(F)(F)F)Nc1ccc(Cl)c(Cl)c1`, in the assay with HEK293 [5], the AC50 is 1.34 µM (active).
In the case of `Cc1ccc(NC(=O)C2=C(c3ccccc3)S(=O)(=O)CCS2(=O)=O)cc1`, the EC50 in [6] is 6.3 µM (active). Besides, at Fatty acid synthase, the IC50 was 1.61 µM (active).

The term EC50 denotes the concentration needed to bring the measured effect to its halfway point. As usually defined, the IC50 is the concentration at which inhibition is half-maximal. The CC50 is the concentration at which the toxic effect on the cells reaches its halfway point. Broadly, the AC50 is the concentration giving half of the maximal activity seen.

Source of the values: ChEMBL document CHEMBL1201862, “PubChem BioAssay data set” (2004).
